Read-outs that look alike come from different tables or passages of the source. Marks after values point to notes of the source that are not given here.
Experiments:
Crl:CD(SD) rats = assay: Subchronic 90-day oral RDT study with reproductive toxicity screening; format: in vivo, rat; conditions: males
[1] = Mass balance study: urinary and fecal Co excretion after single oral gavage; format: in vivo, rat; conditions: single oral bolus 10 mg/kg bw (2.48 mg Co/kg bw), 72 h
rats [2] = conditions: oral, ref Speijers et al. (1982), cited from earlier work
[3] = oral administration; ref Kirchgessner et al., 1994; cited from earlier work
rats [4] = conditions: cited from earlier work
[5] = 0.08–0.19 mg Co/kg bw/day, 3-month, ref Tvermoes et al., 2014, cited from earlier work
[6] = Plasma toxicokinetic study; format: in vivo, rat; conditions: for C max / K el / t 1/2 / Bioavailability (absolute): 10 mg test item/kg PO (2.48 mg Co/kg); for Bioavailability (absolute): vs CoCl2 IV
[7] = 2.48 mg Co/kg bw/day, end of 90-day oral exposure, experimental group
[8] = 7.44 mg Co/kg bw/day, end of 90-day oral exposure, experimental group
[9] = 7.44 mg Co/kg bw/day, recovery group, end of 28-day recovery period
[10] = 7.44 mg Co/kg bw/day, recovery group, end of 90-day oral exposure

O.O.O.O.O.O.[Cl-].[Cl-].[Co+2] [CoCl2, Cobalt dichloride hexahydrate]
HGB, %Diff vs control (Crl:CD(SD) rats; [7]): +10.7% | HGB, mean (Crl:CD(SD) rats; [7]): 11.46 mmol/L | PLT, %Diff vs control (Crl:CD(SD) rats; [7]): −13.9% | PLT, mean (Crl:CD(SD) rats; [7]): 789.2 ×10E3/µl | RBC, %Diff vs control (Crl:CD(SD) rats; [7]): +9.2% | RBC, mean (Crl:CD(SD) rats; [7]): 10.33 ×10E6/µl | Reti, %Diff vs control (Crl:CD(SD) rats; [7]): −23.4% | Reti, mean (Crl:CD(SD) rats; [7]): 10.8 %0 of RBC | body weight at autopsy reduced (Crl:CD(SD) rats; 7.44 mg Co/kg bw/day, 90-day exposure): 11% | HCT, %Diff vs control (Crl:CD(SD) rats; [8]): +24.2% | HCT, mean (Crl:CD(SD) rats; [8]): 61.98% | HGB, %Diff vs control (Crl:CD(SD) rats; [8]): +25.6% | HGB, mean (Crl:CD(SD) rats; [8]): 13.00 mmol/L | PLT, %Diff vs control (Crl:CD(SD) rats; [8]): −30.5% | PLT, mean (Crl:CD(SD) rats; [8]): 637.1 ×10E3/µl | RBC, %Diff vs control (Crl:CD(SD) rats; [8]): +18.9% | RBC, mean (Crl:CD(SD) rats; [8]): 11.25 ×10E6/µl | Reti, %Diff vs control (Crl:CD(SD) rats; [8]): −25.5% | Reti, mean (Crl:CD(SD) rats; [8]): 10.5 %0 of RBC | HCT, mean (Crl:CD(SD) rats; [9]): • 49.58 • .334% | HGB, mean (Crl:CD(SD) rats; [9]): • 10.64 • .087 mmol/l | PLT, mean (Crl:CD(SD) rats; [9]): • 917.6 • .551 ×10E3/µl | RBC, mean (Crl:CD(SD) rats; [9]): • 9.086 • .373 ×10E6/µl | Reti, mean (Crl:CD(SD) rats; [9]): • 15.1 • .0544 %0 of RBC | HCT, mean (Crl:CD(SD) rats; [10]): • 58.68** • .002% | HGB, mean (Crl:CD(SD) rats; [10]): • 12.74** • .0015 mmol/l | PLT, mean (Crl:CD(SD) rats; [10]): • 727.2 • .223 ×10E3/µl | RBC, mean (Crl:CD(SD) rats; [10]): • 10.89** • .0022 ×10E6/µl | Reti, mean (Crl:CD(SD) rats; [10]): • 15.6 • .400 %0 of RBC | dose level from which hematological parameters were significantly affected (Crl:CD(SD) rats; 90-day oral): 2.48 mg Co/kg bw/day | Fecal Excretion (%) ([1]; females): 98.5 % of Co applied | Sum of Urinary and Fecal Excretion (%) ([1]; females): 110.7 % of Co applied | Urinary Excretion (%) ([1]; females): 12.2 % of Co applied | Fecal Excretion (%) ([1]; males): 82.4 % of Co applied | Sum of Urinary and Fecal Excretion (%) ([1]; males): 99.5 % of Co applied | Urinary Excretion (%) ([1]; males): 17.1 % of Co applied | Acute LD50 (mg Co/kg bw) (rats [2]): 190 mg Co/kg bw | Acute LD50 (mg substance/kg bw) (rats [2]): below 1000 mg substance/kg bw | Acute LD50 (mg substance/kg bw) (rats [2]; listed as Co Dichloride Hexahydrate): 766 [Speijers et al. (1982)] mg substance/kg bw | absorbed Co excreted in the feces via the bile [3]: around 1% | dose at which adverse cardiac effects were observed (rats [4]; male SD rats, 3-month exposure, ref Domingo et al., 1984): 32 mg Co/kg bw/day | daily dose at which hematological effects were reported (rats [4]; rats, 7 days, ref Shrivastava et al., 2010): 12.5 mg Co/kg/day | absorption of Co ([5]; men): 20% | absorption of Co ([5]; women): 45% | C max ([6]; females): 2.61 ng/mL | K el ([6]; females): 0.0508 h⁻¹ | t 1/2 ([6]; females): 13.7 h | Bioavailability (absolute) ([6]; females): ~12% | Bioavailability (absolute) ([6]; females, listed as CoCl2.6H2O): 11.7 (absolute) % | C max ([6]; males): 2.51 ng/mL | K el ([6]; males): 0.0489 h⁻¹ | t 1/2 ([6]; males): 14.2 h | Bioavailability (absolute) ([6]; males): approximately 7% | Bioavailability (absolute) ([6]; males, listed as CoCl2.6H2O): 6.81 (absolute) % | Bioavailability calculated from AUC as % of CoCl2 IV AUC, average of m + f: absolute bioavailability ([6]; oral, rats, average of males and females): Absolute bioavailability 9.3% | oral bioavailability ([6]; single oral bolus, rats, males and females not distinguished): ≤ 12%
